Measured values taken from ChEMBL document CHEMBL3758169, “4-Aminoindazolyl-dihydrofuro[3,4-d]pyrimidines as non-covalent inhibitors of mutant epidermal growth factor receptor tyrosine kinase” (Bioorg Med Chem Lett, 2016).
Blank lines part the entries; values can stand above or below the molecule they belong to.

How the values were obtained:
[1] = molecular target: Mitogen-activated protein kinase kinase kinase kinase 2 (Homo sapiens) (UniProt Q12851); experiment: Inhibition of GCK (unknown origin) at 100 nM
[2] = molecular target: Serine/threonine-protein kinase MARK1 (Homo sapiens) (UniProt Q9P0L2); experiment: Inhibition of MARK1 (unknown origin) at 100 nM
[3] = molecular target: Serine/threonine-protein kinase MARK2 (Homo sapiens) (UniProt Q7KZI7); experiment: Inhibition of MARK2 (unknown origin) at 100 nM
[4] = molecular target: Dual specificity mitogen-activated protein kinase kinase 3 (Homo sapiens) (UniProt P46734); experiment: Inhibition of MEK3 (unknown origin) at 100 nM
[5] = molecular target: Mitogen-activated protein kinase kinase kinase 10 (Homo sapiens) (UniProt Q02779); experiment: Inhibition of MLK2 (unknown origin) at 100 nM
[6] = molecular target: Serine/threonine-protein kinase MRCK alpha (Homo sapiens) (UniProt Q5VT25); experiment: Inhibition of MRCKalpha (unknown origin) at 100 nM
[7] = molecular target: Serine/threonine-protein kinase 26 (Homo sapiens) (UniProt Q9P289); experiment: Inhibition of MST4 (unknown origin) at 100 nM
Serine/threonine-protein kinase 26 (Homo sapiens), sequence (Q9P289 2-416 limits assumed): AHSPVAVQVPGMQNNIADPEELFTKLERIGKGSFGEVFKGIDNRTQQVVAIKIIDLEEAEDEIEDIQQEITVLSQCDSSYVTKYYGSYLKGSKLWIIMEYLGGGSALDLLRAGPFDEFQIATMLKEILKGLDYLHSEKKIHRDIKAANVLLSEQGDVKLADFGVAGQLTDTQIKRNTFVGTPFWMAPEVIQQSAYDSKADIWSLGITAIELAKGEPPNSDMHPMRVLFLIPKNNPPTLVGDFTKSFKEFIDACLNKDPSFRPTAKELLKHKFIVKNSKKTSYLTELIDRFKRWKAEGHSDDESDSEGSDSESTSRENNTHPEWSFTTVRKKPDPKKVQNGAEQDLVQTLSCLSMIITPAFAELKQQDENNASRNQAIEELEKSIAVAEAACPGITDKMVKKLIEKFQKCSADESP

[8] = molecular target: Misshapen-like kinase 1 (Homo sapiens) (UniProt Q8N4C8); experiment: Inhibition of MINK1 (unknown origin) at 100 nM
[9] = molecular target: Serine/threonine-protein kinase Nek4 (Homo sapiens) (UniProt P51957); experiment: Inhibition of NEK4 (unknown origin) at 100 nM
[10] = molecular target: Serine/threonine-protein kinase Nek7 (Homo sapiens) (UniProt Q8TDX7); experiment: Inhibition of NEK7 (unknown origin) at 100 nM
[11] = test system: Platelet-derived growth factor receptor alpha (Homo sapiens), P16234 [T674I]; experiment: Inhibition of PDGFRalpha T674I mutant (unknown origin) at 100 nM
[12] = molecular target: 3-phosphoinositide-dependent protein kinase 1 (Homo sapiens) (UniProt O15530); experiment: Inhibition of PDK1 (unknown origin) by direct binding assay at 100 nM
[13] = molecular target: Phosphatidylinositol 4,5-bisphosphate 3-kinase catalytic subunit gamma isoform (Homo sapiens) (UniProt P48736); experiment: Inhibition of PI3KG (unknown origin) at 100 nM
[14] = molecular target: cGMP-dependent protein kinase 1 (Homo sapiens) (UniProt Q13976); experiment: Inhibition of PKG1alpha (unknown origin) at 100 nM
[15] = molecular target: Serine/threonine-protein kinase PLK1 (Homo sapiens) (UniProt P53350); experiment: Inhibition of PLK1 (unknown origin) at 100 nM
Serine/threonine-protein kinase PLK1 (Homo sapiens), sequence (P53350 whole entry): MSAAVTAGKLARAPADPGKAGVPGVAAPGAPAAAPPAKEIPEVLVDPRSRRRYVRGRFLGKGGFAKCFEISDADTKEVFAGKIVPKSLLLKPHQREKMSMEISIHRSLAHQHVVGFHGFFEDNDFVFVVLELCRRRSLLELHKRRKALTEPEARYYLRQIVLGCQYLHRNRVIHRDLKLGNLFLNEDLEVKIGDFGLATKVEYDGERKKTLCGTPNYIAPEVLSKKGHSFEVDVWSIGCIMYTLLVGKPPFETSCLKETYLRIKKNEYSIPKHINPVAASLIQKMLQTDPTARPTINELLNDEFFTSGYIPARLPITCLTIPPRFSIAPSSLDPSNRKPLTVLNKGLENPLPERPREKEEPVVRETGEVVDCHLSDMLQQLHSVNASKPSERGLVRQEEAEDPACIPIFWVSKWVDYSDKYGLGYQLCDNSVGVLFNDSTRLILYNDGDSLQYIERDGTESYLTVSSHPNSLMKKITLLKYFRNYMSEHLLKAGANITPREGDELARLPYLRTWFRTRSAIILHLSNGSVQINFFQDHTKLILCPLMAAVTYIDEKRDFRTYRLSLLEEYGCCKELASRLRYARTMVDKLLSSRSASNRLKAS

[16] = molecular target: Receptor-interacting serine/threonine-protein kinase 2 (Homo sapiens) (UniProt O43353); experiment: Inhibition of RIPK2 (unknown origin) at 100 nM
[17] = molecular target: Ribosomal protein S6 kinase alpha-6 (Homo sapiens) (UniProt Q9UK32); experiment: Inhibition of RSK4 (unknown origin) at 100 nM
[18] = molecular target: Proto-oncogene tyrosine-protein kinase receptor Ret (Homo sapiens) (UniProt P07949); experiment: Inhibition of RET (unknown origin) at 100 nM
[19] = molecular target: Serine/threonine-protein kinase Sgk2 (Homo sapiens) (UniProt Q9HBY8); experiment: Inhibition of SGK2 (unknown origin) at 100 nM
[20] = molecular target: Serine/threonine-protein kinase Sgk3 (Homo sapiens) (UniProt Q96BR1); experiment: Inhibition of SGK3 (unknown origin) at 100 nM
[21] = molecular target: Serine/threonine-protein kinase TAO1 (Homo sapiens) (UniProt Q7L7X3); experiment: Inhibition of TAO1 (unknown origin) at 100 nM
[22] = molecular target: Angiopoietin-1 receptor (Homo sapiens) (UniProt Q02763); experiment: Inhibition of TIE2 (unknown origin) at 100 nM
[23] = molecular target: Wee1-like protein kinase (Homo sapiens) (UniProt P30291); experiment: Inhibition of WEE1 (unknown origin) at 100 nM
[24] = molecular target: Mitogen-activated protein kinase 13 (Homo sapiens) (UniProt O15264); experiment: Inhibition of p38delta(unknown origin) at 100 nM
[25] = molecular target: CDK9/Cyclin K (Homo sapiens) (UniProt P50750+O75909); experiment: Inhibition of CDK9/cyclinK (unknown origin) at 100 nM; format: protein-complex assay
[26] = molecular target: Serine/threonine-protein kinase Chk2 (Homo sapiens) (UniProt O96017); experiment: Inhibition of CHK2 (unknown origin) at 100 nM
[27] = molecular target: Dual specificity protein kinase CLK3 (Homo sapiens) (UniProt P49761); experiment: Inhibition of CLK3 (unknown origin) at 100 nM
Dual specificity protein kinase CLK3 (Homo sapiens), sequence (P49761 whole entry, looked up): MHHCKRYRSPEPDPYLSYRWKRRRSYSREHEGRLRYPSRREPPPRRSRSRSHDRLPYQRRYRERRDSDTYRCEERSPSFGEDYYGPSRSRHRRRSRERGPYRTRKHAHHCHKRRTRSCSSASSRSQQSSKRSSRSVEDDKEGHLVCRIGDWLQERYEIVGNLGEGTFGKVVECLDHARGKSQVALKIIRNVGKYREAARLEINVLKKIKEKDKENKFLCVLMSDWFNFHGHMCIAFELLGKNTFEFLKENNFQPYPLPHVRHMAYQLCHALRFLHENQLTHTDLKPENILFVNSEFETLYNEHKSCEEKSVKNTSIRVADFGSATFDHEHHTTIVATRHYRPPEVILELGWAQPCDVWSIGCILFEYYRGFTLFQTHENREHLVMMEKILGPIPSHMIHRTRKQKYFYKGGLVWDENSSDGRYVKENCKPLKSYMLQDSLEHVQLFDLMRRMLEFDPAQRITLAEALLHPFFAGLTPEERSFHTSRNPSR

[28] = molecular target: Calcium/calmodulin-dependent protein kinase type II subunit beta (Homo sapiens) (UniProt Q13554); experiment: Inhibition of CaMKIIbeta (unknown origin) at 100 nM
[29] = molecular target: Calcium/calmodulin-dependent protein kinase type II subunit alpha (Homo sapiens) (UniProt Q9UQM7); experiment: Inhibition of CamKIIalpha (unknown origin) at 100 nM
[30] = molecular target: Calcium/calmodulin-dependent protein kinase type IV (Homo sapiens) (UniProt Q16566); experiment: Inhibition of CamKIV (unknown origin) at 100 nM
[31] = molecular target: Epithelial discoidin domain-containing receptor 1 (Homo sapiens) (UniProt Q08345); experiment: Inhibition of DDR1 (unknown origin) at 100 nM
[32] = molecular target: DNA-dependent protein kinase catalytic subunit (Homo sapiens) (UniProt P78527); experiment: Inhibition of DNA-PK (unknown origin) at 100 nM
[33] = molecular target: Serine/threonine-protein kinase 17A (Homo sapiens) (UniProt Q9UEE5); experiment: Inhibition of DRAK1 (unknown origin) at 100 nM
[34] = molecular target: Dual specificity tyrosine-phosphorylation-regulated kinase 4 (Homo sapiens) (UniProt Q9NR20); experiment: Inhibition of DYRK4 (unknown origin) at 100 nM
[35] = molecular target: Ephrin type-A receptor 7 (Homo sapiens) (UniProt Q15375); experiment: Inhibition of EPHA7 (unknown origin) at 100 nM
Ephrin type-A receptor 7 (Homo sapiens), sequence (Q15375 28-998 limits assumed): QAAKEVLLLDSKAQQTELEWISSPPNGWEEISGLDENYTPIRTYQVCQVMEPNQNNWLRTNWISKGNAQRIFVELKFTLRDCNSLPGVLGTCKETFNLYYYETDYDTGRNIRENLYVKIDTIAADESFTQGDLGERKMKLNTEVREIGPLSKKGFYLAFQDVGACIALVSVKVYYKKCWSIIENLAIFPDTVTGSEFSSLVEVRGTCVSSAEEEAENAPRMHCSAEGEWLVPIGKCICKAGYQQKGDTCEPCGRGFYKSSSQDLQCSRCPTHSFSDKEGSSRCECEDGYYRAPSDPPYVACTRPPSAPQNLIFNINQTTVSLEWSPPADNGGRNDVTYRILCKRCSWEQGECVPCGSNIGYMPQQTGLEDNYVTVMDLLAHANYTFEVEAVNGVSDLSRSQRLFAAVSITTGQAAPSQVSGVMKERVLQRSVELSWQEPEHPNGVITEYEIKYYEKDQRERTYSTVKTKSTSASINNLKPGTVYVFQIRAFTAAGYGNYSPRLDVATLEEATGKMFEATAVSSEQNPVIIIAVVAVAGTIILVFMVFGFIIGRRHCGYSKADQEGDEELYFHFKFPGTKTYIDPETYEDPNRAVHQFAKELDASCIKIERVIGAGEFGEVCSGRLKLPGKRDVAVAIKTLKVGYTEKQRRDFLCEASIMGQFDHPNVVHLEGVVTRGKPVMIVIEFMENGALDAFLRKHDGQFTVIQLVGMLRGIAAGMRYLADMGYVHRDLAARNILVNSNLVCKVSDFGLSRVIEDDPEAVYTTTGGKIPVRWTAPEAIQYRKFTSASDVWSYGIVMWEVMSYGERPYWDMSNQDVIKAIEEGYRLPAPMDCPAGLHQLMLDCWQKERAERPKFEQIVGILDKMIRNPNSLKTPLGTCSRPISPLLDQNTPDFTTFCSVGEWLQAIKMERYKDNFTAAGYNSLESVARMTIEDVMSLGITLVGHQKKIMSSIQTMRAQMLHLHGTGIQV

[36] = molecular target: Receptor tyrosine-protein kinase erbB-2 (Homo sapiens) (UniProt P04626); experiment: Inhibition of ERBB2 (unknown origin) at 100 nM
Receptor tyrosine-protein kinase erbB-2 (Homo sapiens), sequence (P04626 whole entry): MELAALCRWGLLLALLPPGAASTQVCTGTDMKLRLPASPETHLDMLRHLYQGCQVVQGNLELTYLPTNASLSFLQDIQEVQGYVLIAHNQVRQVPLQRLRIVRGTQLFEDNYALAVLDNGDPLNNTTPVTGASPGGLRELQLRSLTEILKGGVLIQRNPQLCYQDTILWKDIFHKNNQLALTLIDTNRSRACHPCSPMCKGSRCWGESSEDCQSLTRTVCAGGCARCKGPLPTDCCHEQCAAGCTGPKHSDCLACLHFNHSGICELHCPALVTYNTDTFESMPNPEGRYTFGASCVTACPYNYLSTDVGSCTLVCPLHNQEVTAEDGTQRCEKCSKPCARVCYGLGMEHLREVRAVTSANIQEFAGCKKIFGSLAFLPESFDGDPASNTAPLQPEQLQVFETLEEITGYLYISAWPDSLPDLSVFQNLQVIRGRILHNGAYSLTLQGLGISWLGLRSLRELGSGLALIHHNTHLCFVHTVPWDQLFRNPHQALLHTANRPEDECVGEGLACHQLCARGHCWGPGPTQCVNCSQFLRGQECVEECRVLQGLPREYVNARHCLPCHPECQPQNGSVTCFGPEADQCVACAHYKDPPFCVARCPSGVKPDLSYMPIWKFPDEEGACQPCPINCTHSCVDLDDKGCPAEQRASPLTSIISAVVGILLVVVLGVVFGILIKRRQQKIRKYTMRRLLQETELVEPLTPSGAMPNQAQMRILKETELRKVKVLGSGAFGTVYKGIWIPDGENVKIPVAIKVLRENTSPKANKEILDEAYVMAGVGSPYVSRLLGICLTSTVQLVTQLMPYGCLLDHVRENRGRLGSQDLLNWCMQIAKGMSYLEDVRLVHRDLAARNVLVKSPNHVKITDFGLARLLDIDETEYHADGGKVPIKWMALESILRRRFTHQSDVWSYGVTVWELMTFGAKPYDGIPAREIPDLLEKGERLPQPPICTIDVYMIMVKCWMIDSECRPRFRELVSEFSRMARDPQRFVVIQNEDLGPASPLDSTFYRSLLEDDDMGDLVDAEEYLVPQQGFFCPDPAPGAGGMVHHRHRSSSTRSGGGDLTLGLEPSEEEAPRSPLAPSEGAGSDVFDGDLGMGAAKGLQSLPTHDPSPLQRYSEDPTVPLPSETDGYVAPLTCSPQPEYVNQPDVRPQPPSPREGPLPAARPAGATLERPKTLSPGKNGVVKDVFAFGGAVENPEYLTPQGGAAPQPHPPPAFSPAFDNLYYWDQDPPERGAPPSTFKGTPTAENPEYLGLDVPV

[37] = molecular target: Tyrosine-protein kinase Fes/Fps (Homo sapiens) (UniProt P07332); experiment: Inhibition of FES (unknown origin) at 100 nM
[38] = molecular target: Vascular endothelial growth factor receptor 3 (Homo sapiens) (UniProt P35916); experiment: Inhibition of FLT4 (unknown origin) at 100 nM
[39] = molecular target: Glycogen synthase kinase-3 alpha (Homo sapiens) (UniProt P49840); experiment: Inhibition of GSK3aplha (unknown origin) at 100 nM
[40] = molecular target: Homeodomain-interacting protein kinase 3 (Homo sapiens) (UniProt Q9H422); experiment: Inhibition of HIPK3 (unknown origin) at 100 nM
Homeodomain-interacting protein kinase 3 (Homo sapiens), sequence (Q9H422 whole entry, looked up): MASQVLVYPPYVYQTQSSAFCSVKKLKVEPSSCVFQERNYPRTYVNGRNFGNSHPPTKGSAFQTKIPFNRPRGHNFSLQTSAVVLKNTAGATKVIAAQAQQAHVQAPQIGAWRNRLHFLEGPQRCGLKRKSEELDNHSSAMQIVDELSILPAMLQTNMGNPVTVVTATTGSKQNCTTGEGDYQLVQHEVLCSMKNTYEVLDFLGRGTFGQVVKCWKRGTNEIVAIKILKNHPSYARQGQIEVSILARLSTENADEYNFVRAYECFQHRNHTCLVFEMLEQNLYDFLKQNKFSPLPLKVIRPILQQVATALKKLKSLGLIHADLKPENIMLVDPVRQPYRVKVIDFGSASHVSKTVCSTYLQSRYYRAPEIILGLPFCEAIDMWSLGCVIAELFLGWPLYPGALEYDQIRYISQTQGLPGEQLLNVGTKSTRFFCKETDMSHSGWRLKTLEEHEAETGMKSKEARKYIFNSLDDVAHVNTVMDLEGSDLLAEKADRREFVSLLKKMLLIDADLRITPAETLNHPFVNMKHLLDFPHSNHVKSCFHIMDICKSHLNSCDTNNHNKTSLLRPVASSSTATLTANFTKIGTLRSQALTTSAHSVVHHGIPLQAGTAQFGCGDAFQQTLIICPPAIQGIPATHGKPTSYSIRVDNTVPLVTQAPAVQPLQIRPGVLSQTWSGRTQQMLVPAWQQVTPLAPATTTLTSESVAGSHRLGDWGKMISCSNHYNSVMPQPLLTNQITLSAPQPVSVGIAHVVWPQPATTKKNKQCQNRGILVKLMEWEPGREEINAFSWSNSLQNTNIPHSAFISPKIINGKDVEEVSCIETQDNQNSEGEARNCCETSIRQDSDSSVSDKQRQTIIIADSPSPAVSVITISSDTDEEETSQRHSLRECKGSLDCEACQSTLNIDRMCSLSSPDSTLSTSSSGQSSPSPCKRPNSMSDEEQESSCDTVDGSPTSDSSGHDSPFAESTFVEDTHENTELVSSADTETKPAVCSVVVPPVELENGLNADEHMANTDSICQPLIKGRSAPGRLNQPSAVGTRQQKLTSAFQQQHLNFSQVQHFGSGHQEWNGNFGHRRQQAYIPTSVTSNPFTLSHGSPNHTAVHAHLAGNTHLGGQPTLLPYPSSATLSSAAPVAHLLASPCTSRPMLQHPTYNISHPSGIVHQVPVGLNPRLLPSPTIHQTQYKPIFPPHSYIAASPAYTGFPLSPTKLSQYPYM

[41] = molecular target: Insulin receptor-related protein (Homo sapiens) (UniProt P14616); experiment: Inhibition of IRR (unknown origin) at 100 nM
[42] = molecular target: Leukocyte tyrosine kinase receptor (Homo sapiens) (UniProt P29376); experiment: Inhibition of LTK (unknown origin) at 100 nM

inhibition [1]: 6.4%
SMILES: CC1(C)OCc2c(Nc3n[nH]c4c(Cl)cccc34)nc(-c3cn[nH]c3)nc21

inhibition [2]: -1.8% | inhibition [3]: -5.3% | inhibition [4]: 14.1% | inhibition [5]: 2.3% | inhibition [6]: 1.9% | inhibition [7]: 0.2% | inhibition [8]: 12.9% | inhibition [9]: 2% | inhibition [10]: 8.4% | inhibition [11]: 9.5% | inhibition [12]: -1.4% | inhibition [13]: 15.1% | inhibition [14]: 3.4% | inhibition [15]: 4.9% | inhibition [16]: 97.2% | inhibition [17]: 9.8% | inhibition [18]: 98.2% | inhibition [19]: 2.8% | inhibition [20]: 3.1% | inhibition [21]: 0.7% | inhibition [22]: -0.1% | inhibition [23]: 36.1% | inhibition [24]: 8.6% | inhibition [25]: -3.7% | inhibition [26]: -1.3% | inhibition [27]: 3.3% | inhibition [28]: 11.2% | inhibition [29]: -0.1% | inhibition [30]: 15% | inhibition [31]: 52.6% | inhibition [32]: 7.5% | inhibition [33]: 1.1% | inhibition [34]: 0.7% | inhibition [35]: 35.9% | inhibition [36]: 57.2% | inhibition [37]: 6% | inhibition [38]: 95.8% | inhibition [39]: 30.8% | inhibition [40]: 8.6% | inhibition [41]: 12% | inhibition [42]: 32%
SMILES: CC1(C)OCc2c(Nc3n[nH]c4ccccc34)nc(-c3cn[nH]c3)nc21
